The record followed here is US5021430A, “Certain N-substituted butyramide derivatives” (Ciba-Geigy Corporation, priority 1987, dated 1991).

pIC50: −log10 of the molar value.

For this assay, the target named is T1, enkephalinase (Rattus norvegicus, UniProt P07861).
T1 construct: synaptic membrane preparation from rat striatum; from tissue; host or cells: rat striatum, synaptic membrane preparation
T1 sequence (P07861 1-750): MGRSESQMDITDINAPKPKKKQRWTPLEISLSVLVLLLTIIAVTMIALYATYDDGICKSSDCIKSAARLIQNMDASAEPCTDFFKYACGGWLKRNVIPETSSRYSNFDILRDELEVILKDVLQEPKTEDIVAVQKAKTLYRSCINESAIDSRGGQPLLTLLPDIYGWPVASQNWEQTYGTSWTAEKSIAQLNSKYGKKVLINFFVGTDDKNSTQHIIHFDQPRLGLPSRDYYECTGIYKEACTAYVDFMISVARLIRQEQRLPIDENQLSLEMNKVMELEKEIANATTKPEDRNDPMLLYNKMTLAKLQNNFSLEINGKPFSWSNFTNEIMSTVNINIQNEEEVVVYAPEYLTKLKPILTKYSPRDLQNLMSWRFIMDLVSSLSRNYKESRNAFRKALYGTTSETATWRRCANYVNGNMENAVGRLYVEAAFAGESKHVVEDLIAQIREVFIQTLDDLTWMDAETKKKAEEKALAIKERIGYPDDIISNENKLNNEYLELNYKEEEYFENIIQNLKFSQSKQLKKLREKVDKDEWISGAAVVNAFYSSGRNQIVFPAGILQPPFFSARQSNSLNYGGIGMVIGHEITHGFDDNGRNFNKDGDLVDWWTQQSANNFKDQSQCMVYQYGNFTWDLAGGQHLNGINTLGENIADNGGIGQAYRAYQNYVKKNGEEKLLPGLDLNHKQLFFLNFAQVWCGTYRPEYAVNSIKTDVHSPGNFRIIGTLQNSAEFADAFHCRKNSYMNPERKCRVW
Briefly: enkephalinase inhibitory activity in vitro (inhibition of 3H-Tyr-gly-gly generation from 3H-Leu-enkephalin). It counts as biochemical. The settings on record: rat striatum synaptic membrane preparation, pH 6.5, 3H-Leu-enkephalin, 15 minutes at 30° C., 10^-6 M Bestatin. The procedure:
The enkephalinase inhibitory activity is determined in vitro by an adaptation of the method of Alstein et al. as described in Life Sciences 28, 185 (1981), as follows:
A mixture of a solution of the test compound in distilled water or distilled water and ethanol diluted with pH 6.5 buffer and of a synaptic membrane preparation from rat striatum is incubated at pH 6.5 with ^3 H-Leu-enkephalin for 15 minutes at 30° C., in the presence of 10^-6 M Bestatin (to inhibit aminopeptidase activity). The reaction is stopped by the addition of 30% acetic acid and the reaction product ^3 H-Tyr-gly-gly is separated from unreacted ^3 H-Leu-enkephalin on a Porapak O column followed by a Cu^++-chelex column. The ^3 H-Tyr-gly-gly is counted by liquid scintillation. The amount of ^3 H-Tyr-gly-gly generated in the presence of test compound as compared to control is then calculated. An IC50 value representing the concentration of test compound required for 50% inhibition of ^3 H-Tyr-gly-gly generation is then determined graphically.

A word on the pIC50: it is −log10 of the IC50, conventionally taken in molar units. As for `O=C(O)[C@H](Cc1ccccc1)C[C@@H](Cc1ccccc1)C(=O)N[C@@H](COCc1ccccc1)C(=O)O` [N-[(S,S)-2,4-dibenzyl-4-carboxybutyryl]-O-benzyl-(L)-serine], the pIC50 (unit inferred) was roughly 8.40.
In turn, `O=C(O)[C@H](Cc1ccccc1)C[C@@H](Cc1ccccc1)C(=O)N[C@@H](CSCc1ccccc1)C(=O)O` [N-[(S,S)-2,4-dibenzyl-4-carboxybutyryl]-S-benzyl-(L)-cysteine] had a pIC50 of roughly 8.22.
The compound `O=C(O)[C@H](Cc1ccccc1)C[C@@H](Cc1ccccc1)C(=O)N[C@@H](CCc1ccccc1)C(=O)O` [N-[(S,S)-2,4-dibenzyl-4-carboxybutyryl]-(L)-homophenylalanine] showed a pIC50 of roughly 8.30.
